Assay results reported in ChEMBL document CHEMBL1201862, “PubChem BioAssay data set” (2004).
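Growth conditions: 96-well plates. Treatment: test compound, 48 hours, 5 concentrations. Analysis: linear interpolation between bracketing concentrations; unreached endpoints set to highest concentration. The concentration for 50% growth inhibition is given as GI50.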 Activity calls are given as the source filed them. Rule as the data show it: active = GI50 up to about 1.1 µM and inactive = higher.

Key:
Experiment in all cases: NCI-60 cell line screen, 48 h
786-0 = system: 786-0
A498 = system: A498
A549 = system: A549
ACHN = system: ACHN
BT-549 = system: BT-549
CAKI-1 = system: CAKI-1
CCRF-CEM = system: CCRF-CEM
COLO 205 = system: COLO 205
DU-145 = system: DU-145
EKVX = system: EKVX
HCC 2998 = system: HCC 2998
HCT-116 = system: HCT-116
HCT-15 = system: HCT-15
HL-60 = system: HL-60
HOP-62 = system: HOP-62
HOP-92 = system: HOP-92
HT-29 = system: HT-29
Hs-578T = system: Hs-578T
IGROV-1 = system: IGROV-1
K562 = system: K562
KM12 = system: KM12
LOX IMVI = system: LOX IMVI
M14 = system: M14
MCF7 = system: MCF7
MDA-MB-231 = system: MDA-MB-231
MDA-MB-435 = system: MDA-MB-435
MDA-N = system: MDA-N
MOLT-4 = system: MOLT-4
Malme-3M = system: Malme-3M
NCI-H226 = system: NCI-H226
NCI-H23 = system: NCI-H23
NCI-H460 = system: NCI-H460
NCI-H522 = system: NCI-H522
NCI/ADR-RES = system: NCI/ADR-RES
OVCAR-4 = system: OVCAR-4
OVCAR-5 = system: OVCAR-5
OVCAR-8 = system: OVCAR-8
PC-3 = system: PC-3
RPMI-8226 = system: RPMI-8226
RXF 393 = system: RXF 393
SF-268 = system: SF-268
SF-295 = system: SF-295
SK-MEL-28 = system: SK-MEL-28
SK-MEL-2 = system: SK-MEL-2
SK-MEL-5 = system: SK-MEL-5
SK-OV-3 = system: SK-OV-3
SN12C = system: SN12C
SNB-19 = system: SNB-19
SR = system: SR
SW-620 = system: SW-620
T47D = system: T47D
TK-10 = system: TK-10
U-251 = system: U-251
UACC-257 = system: UACC-257
UACC-62 = system: UACC-62
UO-31 = system: UO-31
OVCAR-3 = system: OVCAR-3
SF-539 = system: SF-539
SNB-75 = system: SNB-75

CCOC(=O)/C=C(/C)Nc1nc2c(c(C(=O)OC)c1C#N)CCCC2
GI50 (786-0): > 100 µM (inactive)
GI50 (A498): > 100 µM (inactive)
GI50 (A549): > 100 µM (inactive)
GI50 (ACHN): > 100 µM (inactive)
GI50 (BT-549): > 100 µM (inactive)
GI50 (CAKI-1): > 100 µM (inactive)
GI50 (CCRF-CEM): > 100 µM (inactive)
GI50 (COLO 205): > 100 µM (inactive)
GI50 (DU-145): > 100 µM (inactive)
GI50 (EKVX): 86.1 µM (inactive)
GI50 (HCC 2998): > 100 µM (inactive)
GI50 (HCT-116): > 100 µM (inactive)
GI50 (HCT-15): > 100 µM
GI50 (HL-60): 69.3 µM (inactive)
GI50 (HOP-62): > 100 µM (inactive)
GI50 (HOP-92): > 100 µM (inactive)
GI50 (HT-29): > 100 µM (inactive)
GI50 (Hs-578T): > 100 µM (inactive)
GI50 (IGROV-1): > 100 µM (inactive)
GI50 (K562): > 100 µM (inactive)
GI50 (KM12): > 100 µM (inactive)
GI50 (LOX IMVI): > 100 µM (inactive)
GI50 (M14): > 100 µM (inactive)
GI50 (MCF7): > 100 µM (inactive)
GI50 (MDA-MB-231): > 100 µM (inactive)
GI50 (MDA-MB-435): > 100 µM (inactive)
GI50 (MDA-N): > 100 µM (inactive)
GI50 (MOLT-4): 63 µM (inactive)
GI50 (Malme-3M): > 100 µM (inactive)
GI50 (NCI-H226): > 100 µM (inactive)
GI50 (NCI-H23): > 100 µM (inactive)
GI50 (NCI-H460): > 100 µM (inactive)
GI50 (NCI-H522): > 100 µM (inactive)
GI50 (NCI/ADR-RES): > 100 µM (inactive)
GI50 (OVCAR-4): 44.7 µM (inactive)
GI50 (OVCAR-5): > 100 µM (inactive)
GI50 (OVCAR-8): > 100 µM (inactive)
GI50 (PC-3): > 100 µM (inactive)
GI50 (RPMI-8226): > 100 µM (inactive)
GI50 (RXF 393): > 100 µM (inactive)
GI50 (SF-268): > 100 µM (inactive)
GI50 (SF-295): > 100 µM (inactive)
GI50 (SK-MEL-28): > 100 µM (inactive)
GI50 (SK-MEL-2): > 100 µM (inactive)
GI50 (SK-MEL-5): > 100 µM (inactive)
GI50 (SK-OV-3): > 100 µM (inactive)
GI50 (SN12C): > 100 µM (inactive)
GI50 (SNB-19): > 100 µM (inactive)
GI50 (SR): > 100 µM (inactive)
GI50 (SW-620): > 100 µM (inactive)
GI50 (T47D): > 100 µM (inactive)
GI50 (TK-10): > 100 µM (inactive)
GI50 (U-251): > 100 µM (inactive)
GI50 (UACC-257): > 100 µM (inactive)
GI50 (UACC-62): > 100 µM (inactive)
GI50 (UO-31): > 100 µM (inactive)

COC(=O)CC[C@@H](C)[C@H]1CC[C@H]2[C@@H]3CC[C@@H]4C[C@H](O)CC[C@]4(C)[C@H]3CC[C@]12C
GI50 (786-0): 18.5 µM (inactive)
GI50 (A498): 20.5 µM (inactive)
GI50 (A549): 18.5 µM (inactive)
GI50 (ACHN): 20.7 µM (inactive)
GI50 (BT-549): 16.2 µM (inactive)
GI50 (CAKI-1): 17.9 µM (inactive)
GI50 (CCRF-CEM): 18.2 µM (inactive)
GI50 (COLO 205): 19.5 µM (inactive)
GI50 (DU-145): 17.7 µM (inactive)
GI50 (EKVX): 19.2 µM (inactive)
GI50 (HCT-116): 17.1 µM (inactive)
GI50 (HCT-15): 17.1 µM
GI50 (HL-60): 15 µM (inactive)
GI50 (HOP-62): 18.4 µM (inactive)
GI50 (HOP-92): 13.8 µM (inactive)
GI50 (HT-29): 16.6 µM (inactive)
GI50 (Hs-578T): 23.1 µM (inactive)
GI50 (IGROV-1): 17.2 µM (inactive)
GI50 (K562): 10.7 µM (inactive)
GI50 (KM12): 17.5 µM (inactive)
GI50 (LOX IMVI): 18.7 µM (inactive)
GI50 (M14): 18.5 µM (inactive)
GI50 (MCF7): 18.3 µM (inactive)
GI50 (MDA-MB-231): 17.8 µM (inactive)
GI50 (MDA-MB-435): 16.7 µM (inactive)
GI50 (MDA-N): 19.1 µM (inactive)
GI50 (MOLT-4): 14.5 µM (inactive)
GI50 (Malme-3M): 17 µM (inactive)
GI50 (NCI-H226): 20.3 µM (inactive)
GI50 (NCI-H23): 16.5 µM (inactive)
GI50 (NCI-H460): 19.3 µM (inactive)
GI50 (NCI-H522): 18.3 µM (inactive)
GI50 (NCI/ADR-RES): 19 µM (inactive)
GI50 (OVCAR-3): 18.1 µM (inactive)
GI50 (OVCAR-4): 19 µM (inactive)
GI50 (OVCAR-5): 19.8 µM (inactive)
GI50 (OVCAR-8): 19 µM (inactive)
GI50 (PC-3): 17.3 µM (inactive)
GI50 (RPMI-8226): 11.7 µM (inactive)
GI50 (RXF 393): 18.2 µM (inactive)
GI50 (SF-268): 21.6 µM (inactive)
GI50 (SF-295): 18.2 µM (inactive)
GI50 (SF-539): 18.5 µM (inactive)
GI50 (SK-MEL-28): 19 µM (inactive)
GI50 (SK-MEL-2): 18.7 µM (inactive)
GI50 (SK-MEL-5): 16.9 µM (inactive)
GI50 (SK-OV-3): 20.8 µM (inactive)
GI50 (SN12C): 18.6 µM (inactive)
GI50 (SNB-19): 21.6 µM (inactive)
GI50 (SNB-75): 19.1 µM (inactive)
GI50 (SR): 14.9 µM (inactive)
GI50 (SW-620): 29.6 µM (inactive)
GI50 (T47D): 19.4 µM (inactive)
GI50 (TK-10): 20.3 µM (inactive)
GI50 (U-251): 20.7 µM (inactive)
GI50 (UACC-257): 14.8 µM (inactive)
GI50 (UACC-62): 17.9 µM (inactive)
GI50 (UO-31): 19 µM (inactive)
